Experimental data: patent publication EP0497091A1, “Bridged cyclic ketal derivatives” (GLAXO GROUP LIMITED, priority 1991, dated 1992)
≈ marks a conversion by molar mass, not a printed value.

Key:
squalene synthase = target: T1, squalene synthase (Rattus norvegicus, UniProt Q02769); assay: Inhibition of squalene synthase ([14C]squalene production from [2-14C]farnesylpyrophosphate); assay type: biochemical
T1 construct: from tissue; host or cells: rat liver homogenate
T1 sequence (Q02769 1-416): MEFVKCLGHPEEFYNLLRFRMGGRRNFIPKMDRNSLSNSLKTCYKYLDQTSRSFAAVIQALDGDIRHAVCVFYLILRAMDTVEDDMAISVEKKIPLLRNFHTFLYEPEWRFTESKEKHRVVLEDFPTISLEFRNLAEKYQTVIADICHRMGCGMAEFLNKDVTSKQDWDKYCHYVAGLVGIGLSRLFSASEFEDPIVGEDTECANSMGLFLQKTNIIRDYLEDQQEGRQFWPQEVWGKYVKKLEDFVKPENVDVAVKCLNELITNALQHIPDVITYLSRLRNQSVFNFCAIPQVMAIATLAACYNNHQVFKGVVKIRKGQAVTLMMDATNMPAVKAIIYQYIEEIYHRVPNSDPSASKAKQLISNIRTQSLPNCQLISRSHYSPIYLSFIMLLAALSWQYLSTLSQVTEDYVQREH
From the text: A. Biller et al. in J. […] [¹⁴C]squalene is separated from unreacted substrate on thin layer chromatography plates and determined by liquid scintillation counting. […] Acta, Volume 877, 50-60 (1986) and modified to include measurement of cholesterol by high performance liquid chromatography (h.p.l.c.). […] A. […] [¹⁴C] Squalene was separated from unreacted substrate on thin layer chromatography plates and determined by liquid scintillation counting. Inhibition of squalene synthase was quantified by incubating rat liver homogenate with various concentrations of the test compound in the presence of [2-¹⁴C] farnesylpyrophosphate. The concentration of compound giving 50% inhibition of [¹⁴C] squalene production in a 30 minute assay was taken as the IC₅₀ value.

[1] = system: clinically relevant pathogens; assay: In vitro antifungal activity, agar plate MIC determination; assay type: cell-based; details: Candida albicans
Experimental: The in vitro evaluation of the anti-fungal activity of compounds of the invention can be performed by determining the minimum inhibitory concentration (MIC) which is the concentration of the test compound in a suitable medium at which growth of a particular microorganism fails to occur.
[¹⁴C] Squalene was separated from unreacted substrate on thin layer chromatography plates and determined by liquid scintillation counting. Inhibition of squalene synthase was quantified by incubating rat liver homogenate with various concentrations of the test compound in the presence of [2-¹⁴C] farnesylpyrophosphate. The concentration of compound giving 50% inhibition of [¹⁴C] squalene production in a 30 minute assay was taken as the IC₅₀ value. […] In practice, a series of agar plates, each having the test compound incorporated at a particular concentration, was inoculated with a standard culture of a clinically relevant pathogen, for example Candida albicans, and each plate was then incubated at 37 °C for 24 to 48 hours depending on the pathogen.

Compound | IC50 (squalene synthase) [nM] | MIC [1] [µg/mL]
CCC(C)CC(C)CCC(=O)OC1C(O)C2(CCC(O)C(O)C(C)Cc3ccccc3)OC(C(=O)O)C(O)(C(=O)O)C1(C(=O)O)O2 (stereo not drawn) [Example 18, [1S-[1α(3R*S*,4R*,5S*),3α,4β,5α,6α(4S*,6R*),7β]] 1-(3,4-Dihydroxy-5-methyl-6-phenylhexyl)-4,6,7-trihydroxy-2,8-dioxabicyclo[3.2.1]octane-3,4,5-tricarboxylic acid, 6-(4,6-dimethyloctanoate)] | < 100 | 0.1 to 31 (≈ 0.153 to 47.3 µM)
C=C(CC[C@]12O[C@H](C(=O)O)[C@@](O)(C(=O)O)[C@](C(=O)O)(O1)[C@H](OC(=O)CC13CC4CC(CC(C4)C1)C3)[C@H]2O)[C@@H](OC(C)=O)[C@H](C)Cc1ccccc1 (relative stereo) [Example 45, [1S-[1α(4R*,5S*),3α,4β,5α,6α,7β]] 1-(4-Acetyloxy-5-methyl-3-methylene-6-phenylhexyl)-4,6,7-trihydroxy-2,8-dioxabicyclo[3.2.1]octane-3,4,5-tricarboxylic acid, 6-[1-(tricyclo[3.3.1.1^3,7]decyl)acetate]] | < 100 | 0.1 to 31 (≈ 0.14 to 43.4 µM)
C=C(CC[C@]12O[C@H](C(=O)O)[C@@](O)(C(=O)O)[C@](C(=O)O)(O1)[C@H](OC(=O)CC=CCCCC)[C@H]2O)[C@@H](OC(C)=O)[C@H](C)Cc1ccccc1 (relative stereo) [Example 64, [1S-[1α(4R*,5S*),3α,4β,5α,6α,7β]] 1-(4-Acetyloxy-5-methyl-3-methylene-6-phenylhexyl)-4,6,7-trihydroxy-2,8-dioxabicyclo[3.2.1]octane-3,4,5-tricarboxylic acid, 6-[(E/Z)-3-octenoate]] | < 100 | 0.1 to 31 (≈ 0.151 to 46.8 µM)
C=C(CC[C@]12O[C@H](C(=O)O)[C@@](O)(C(=O)O)[C@](C(=O)O)(O1)[C@H](OC(=O)CCCC1CCCCC1)[C@H]2O)[C@@H](OC(C)=O)[C@H](C)Cc1ccccc1 (relative stereo) [Example 41, [1S-[1α(4R*,5S*),3α,4β,5α,6α,7β]] 1-(4-Acetyloxy-5-methyl-3-methylene-6-phenylhexyl)-4,6,7-trihydroxy-2,8-dioxabicyclo[3.2.1]octane-3,4,5-tricarboxylic acid, 6-(4-cyclohexylbutanoate)] | < 100 | 0.1 to 31 (≈ 0.145 to 44.9 µM)
C=C(CC[C@]12O[C@H](C(=O)O)[C@@](O)(C(=O)O)[C@](C(=O)O)(O1)[C@H](OC(=O)OCCCCCCCCC)[C@H]2O)[C@@H](OC(C)=O)[C@H](C)Cc1ccccc1 (relative stereo) [Example 57, [1S-[1α(4R*,5S*),3α,4β.5α,6α,7β]] 1-(4-Acetyloxy-5-methyl-3-methylene-6-phenylhexyl)-4,7-dihydroxy-6-[(nonoxycarbonyl)oxy]-2,8-dioxabicyclo[3.2.1]octane-3,4,5-tricarboxylic acid] | < 100 | 0.1 to 31 (≈ 0.141 to 43.7 µM)
C=C(CC[C@]12O[C@H](C(=O)O)[C@@](O)(C(=O)O)[C@](C(=O)O)(O1)[C@H](OC(=O)/C=C/[C@@H](C)C[C@@H](C)CC)[C@H]2O)[C@H](O)[C@H](C)Cc1ccccc1 (relative stereo) [Example 1, [1S-[1α(4S*,5S*),3α,4β,5α,6α(2E,4R*,6R*),7β]] 1-(4-Hydroxy-5-methyl-3-methylene-6-phenylhexyl)-4,6,7-trihydroxy-2,8-dioxabicyclo[3.2.1]octane-3,4,5-tricarboxylic acid, 6-(4,6-dimethyl-2-octenoate)] | < 100 | 0.1 to 31 (≈ 0.154 to 47.8 µM)
C=C(CCC12OC(C(=O)O)C(O)(C(=O)O)C(C(=O)O)(O1)C(OC(=O)C=CC(C)CC(C)CC)C2OC(C)=O)C(OC(C)=O)C(C)Cc1ccccc1 (stereo not drawn) [Example 24, [1S-[1α(4R*,5S*),3α,4β,5α,6α(2E,4R*,6R*),7β]] 7-Acetyloxy-1-(4-acetyloxy-5-methyl-3-methylene-6-phenylhexyl)-4,6-dihydroxy-2,8-dioxabicyclo[3.2.1]octane-3,4,5-tricarboxylic acid, 6-(4,6-dimethyl-2-octenoate)] | < 100 | 0.1 to 31 (≈ 0.136 to 42.3 µM)
C=C(CC[C@]12O[C@H](C(=O)O)[C@@](O)(C(=O)O)[C@](C(=O)O)(O1)[C@H](OC(=O)CCCCCCCCC)[C@H]2O)[C@@H](OC(C)=O)[C@H](C)Cc1ccccc1 (relative stereo) [6-decanoate in Example 30, [1S-[1α(4R*,5S*),3α,4β,5α,6α,7β]] 1-(4-acetyloxy-5-methyl-3-methylene-6-phenylhexyl)-4,6,7-trihydroxy-2,8-dioxabicyclo[3.2.1]octane-3,4,5-tricarboxylic acid, 6-decanoate] | < 100 | 0.1 to 31 (≈ 0.144 to 44.7 µM)
C=C(CC[C@]12O[C@H](C(=O)O)[C@@](O)(C(=O)O)[C@](C(=O)O)(O1)[C@H](OC(=O)CCCCCCC)[C@H]2O)[C@@H](OC(C)=O)[C@H](C)Cc1ccccc1 (relative stereo) [Example 31, [1S-[1α(4R*,5S*),3α,4β,5α,6α,7β]] 1-(4-Acetyloxy-5-methyl-3-methylene-6-phenylhexyl)-4,6,7-trihydroxy-2,8-dioxabicyclo[3.2.1]octane-3,4,5-tricarboxylic acid, 6-octanoate] | < 100 | 0.1 to 31 (≈ 0.15 to 46.6 µM)
